In US10669545B2, “Tumor cell malignant transformation suppressor and anti-tumor agent” (JAPAN SCIENCE AND TECHNOLOGY AGENCY, priority 2015, dated 2020):

Assays:
[1] = system: A375 cells; experiment: Cell proliferation / cell number count, A375 cells; assay type: cell-based, human
Method: In cell proliferation assay, A375 cells and SK-MEL-28 cells transfected with siZIC5#1, siZIC5#2, siNeg#1, or siNeg#2 described in Table 2 in the same manner as Example 1 were plated at 1,000 to 2,000 cells/well in 96-well plates. The number of cells transfected with each siRNA was measured over time. Regarding counting the number of cells, cell nuclei were stained with Hoechst 33342 (manufactured by Dojindo, Kumamoto, Japan), and the total cell number in each well was counted by using an IN Cell Analyzer 2000 (manufactured by GE Healthcare, Piscataway, N.J.).
Furthermore, a cell cycle of each cell was examined with respect to A375 cells. An average value (SD) of percentages (%) of cells in G1 population, S population, and G2M population of each cell is shown in Table 9. […] As a result, percentages of cells in the S population and G2M population of A375 cells were reduced by PDGFD gene knockdown.
In addition, the number of cells of A375 cells transfected with siPDGFD#1, siPDGFD#2, or siNeg#1 was successively counted. The statistical difference was determined using the Dunnett's multiple comparisons of means test (**: P<0.01, *: P<0.05).
The result of a relative cell number (n=3) in which the number of cells of the cells treated with rat IgG was set to 1 is shown in FIG. 28. […]

[2] = system: stably Zic5 gene-expressed line (SK-MEL-28 cells); experiment: Transwell Migration Assay, stably Zic5 gene-expressed line; assay type: cell-based, human; conditions: normalized to total viable cells; siNeg#1 set to 1
Method: Specifically, the stably Zic5 gene-expressed line and the stably Flag-expressed line were seeded in a 24-well plate into which an insert with 8-μm sized pores (manufactured by BD Biosciences) was put and were cultured in RPMI 1640 medium containing 10% FBS, and then the number of migrated cells was counted.
The influence of suppressing MLC2 phosphorylation on migration ability of cells was analyzed. Specifically, Transwell Migration Assay was performed in the same manner as above with the stably Zic5 gene-expressed line and the stably Flag-expressed line in a state of being treated or non-treated with a ROCK inhibitor (Y27632), and then the number of migrated cells was counted.
The number of migrated cells was normalized to a total number of viable cells. A relative cell number (n=3) in which the number of migrated cells transfected with siNeg#1 of each cell was set to 1 is shown in FIG. 29. The statistical difference was determined by the Tukey's multiple comparisons of means test (**: P<0.01, *: P<0.05).

## siPDGFD#1: siRNA for PDGFD gene; targeting sequence CAGGAATTACTCGGTCAATAT (SEQ. NO. 28) (listed as DNA, chemistry not given here)
[1]
  relative cell number (siNeg#1 set to 1), cell proliferation rate: decrease in cell proliferation rate
[2]
  increase in the number of migrated cells by Zic5 gene overexpression: completely suppressed
